pIC50, pKi: −log10 of the molar value.
Columns and labels:
SARS-CoV-2 3CL protease = SARS-CoV-2 3CL protease (Severe acute respiratory syndrome coronavirus 2, UniProt P0DTD1); assay: biochemical; settings: for pIC50: 15 nM enzyme, 60 min at 23° C.; for pKi: fit to the Morrison equation
SARS-CoV-2 = assay: Antiviral activity in HeLa-ACE2 cells (viral protein detection); format: cell-based; settings: Severe acute respiratory syndrome coronavirus 2, compound alone

Structure (SMILES)	pIC50 (SARS-CoV-2 3CL protease)	pKi (SARS-CoV-2 3CL protease)	EC90 (SARS-CoV-2) [nM]
CC(C)(C)C[C@H](NC(=O)[C@H]1CCCO1)C(=O)N[C@@H](C[C@@H]1CCNC1=O)C(=O)COC(=O)c1c(Cl)cccc1Cl [(3S)-3-({4-methyl-N-[(2R)-tetrahydrofuran-2-ylcarbonyl]-L-leucyl}amino)-2-oxo-4-[(3S)-2-oxopyrrolidin-3-yl]butyl 2,6-dichlorobenzoate]	7.77	8.57	–
CCC(CC)COC(=O)[C@H](C)N[P@](=O)(OC[C@H]1O[C@@](C#N)(c2ccc3c(N)ncnn23)[C@H](O)[C@@H]1O)Oc1ccccc1 [remdesivir, reference compound]	–	–	168
COc1cccc2[nH]c(C(=O)N[C@@H](Cc3ccccc3)C(=O)N[C@@H](C[C@@H]3CCNC3=O)C(=O)CO)cc12 [I, N-((S)-1-(((S)-4-hydroxy-3-oxo-1-((S)-2-oxopyrrolidin-3-yl)butan-2-yl)amino)-1-oxo-3-phenylpropan-2-yl)-4-methoxy-1H-indole-2-carboxamide]	6.43	6.86	–
O=C(N[C@@H](CC1CC1)C(=O)N[C@@H](C[C@@H]1CCNC1=O)C(=O)c1nc2ccccc2s1)c1ccccn1 [H, N-((S)-1-(((S)-1-(benzo[d]thiazol-2-yl)-1-oxo-3-((S)-2-oxopyrrolidin-3-yl)propan-2-yl)amino)-3-cyclopropyl-1-oxopropan-2-yl)picolinamide]	5.08	5.52	–
COc1cccc2[nH]c(C(=O)N[C@@H](CC(C)C)C(=O)N[C@@H](C[C@@H]3CCNC3=O)C(=O)COC(=O)C3CC3)cc12 [(3S)-3-({N-[(4-methoxy-1H-indol-2-yl)carbonyl]-L-leucyl}amino)-2-oxo-4-[(3S)-2-oxopyrrolidin-3-yl]butyl cyclopropanecarboxylate]	6.89	7.37	–
CC(C)(C)C[C@H](NC(=O)c1cc2ccccc2[nH]1)C(=O)N[C@@H](C[C@@H]1CCNC1=O)C(=O)CO [N-((1S)-1-{[((1S)-3-hydroxy-2-oxo-1-{[(3S)-2-oxopyrrolidin-3-yl]methyl}propyl)amino]carbonyl}-3,3-dimethylbutyl)-1H-indole-2-carboxamide]	7.62	8.55	–

Source: patent US20230157998A1, “Methods of Inhibiting SARS-CoV-2 Replication and Treating Corona Virus Disease 2019” (Pfizer Inc., priority 2020, published 2023)
